Measured values taken from patent EP2951180B1, “2,6,7,8 SUBSTITUTED PURINES AS HDM2 INHIBITORS” (Merck Sharp & Dohme Corp., priority 2013, dated 2014).

Each compound was assayed against T1, HDM2 (Homo sapiens, UniProt Q00987) (assay: HDM2 FRET assay (inhibition of binding of FITC labeled p53-pocket peptide to HDM2)). Details: FRET IC50.
T1 construct: Thioredoxin (N); made in house; host or cells: E. coli strain BL21(DE3)Rosetta
In short: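 Displacement of FITC-p53 peptide (3 nM) from His-tagged HDM2 (0.5 nM) is measured by Tb-to-fluorescein FRET in PBS, 0.01% BSA, 0.01% Tween-20. IC50 values derive from 10-point curves.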

T1 sequence (Q00987 17-125): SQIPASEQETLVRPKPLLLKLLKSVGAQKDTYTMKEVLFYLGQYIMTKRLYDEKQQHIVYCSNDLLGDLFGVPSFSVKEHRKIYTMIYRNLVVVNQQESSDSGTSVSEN

| Structure (SMILES) | IC50 [nM] |
| --- | --- |
| C[C@@H](Nc1nc(C(=O)O)nc2nc(N3C4CCC3COC4)n(Cc3ccc(C(F)(F)F)cc3)c12)C1CCC1 [Example 9.76, 6-{[(1R)-1-cyclobutylethyl]amino}-8-(3-oxa-8-azabicyclo[3.2.1]oct-8-yl)-7-[4-(trifluoromethyl)benzyl]-7H-purine-2-carboxylic acid] | 15.9 |

Same assay, conditions: Table 9; read-out: FRET IC50

| Structure (SMILES) | IC50 [nM] |
| --- | --- |
| C[C@@H](Nc1nc(-c2noc(=O)[nH]2)nc2nc(N3CCOC[C@H]3c3ccccc3)n(Cc3ccc(C(F)(F)F)cc3)c12)C1CCC1 [Example 9.57, 3-(6-{[(1R)-1-cyclobutylethyl]amino}-8-[(3R)-3-phenylmorpholin-4-yl]-7-[4-(trifluoromethyl)benzyl]-7H-purin-2-yl)-1,2,4-oxadiazol-5(4H)-one] | 1.72 |
| CC[C@@H](c1ccccc1)N(C)c1nc2nc(C(=O)O)nc(N[C@H](C)C3CCC3)c2n1Cc1ccc(C(F)(F)F)cc1 [Example 9.58, 6-{[(1R)-1-cyclobutylethyl]amino}-8-{methyl[(1S)-1-phenylpropyl]amino}-7-[4-(trifluoromethyl)benzyl]-7H-purine-2-carboxylic acid] | 16.4 |
| Cc1cc(C)n(-c2nc3nc(C(=O)O)nc(N[C@H](C)C4CCC4)c3n2Cc2ccc(C(F)(F)F)cc2)n1 [Example 9.59, 6-{[(1R)-1-cyclobutylethyl]amino}-8-(3,5-dimethyl-1H-pyrazol-1-yl)-7-[4-(trifluoromethyl)benzyl]-7H-purine-2-carboxylic acid] | 292 |
| C[C@@H](Nc1nc(C(=O)O)nc2nc(N3CCCC3c3cccc(F)c3)n(Cc3ccc(C(F)(F)F)cc3)c12)C1CCC1 (stereo partly drawn) [Example 9.60, 6-{[(1R)-1-cyclobutylethyl]amino}-8-[2-(3-fluorophenyl)pyrrolidin-1-yl]-7-[4-(trifluoromethyl)benzyl]-7H-purine-2-carboxylic acid] | 10.2 |
| Cc1cc(-c2ccccc2)nn1-c1nc2nc(C(=O)O)nc(N[C@H](C)C3CCC3)c2n1Cc1ccc(C(F)(F)F)cc1 [Example 9.61, 6-{[(1R)-1-cyclobutylethyl]amino}-8-(5-methyl-3-phenyl-1H-pyrazol-1-yl)-7-[4-(trifluoromethyl)benzyl]-7H-purine-2-carboxylic acid] | 300 |
| C[C@@H](Nc1nc(C(=O)O)nc2nc(N3CCCC[C@@H]3c3ccccc3)n(Cc3ccc(C(F)(F)F)cc3)c12)C1CCC1 [Example 9.62, 6-{[(1R)-1-cyclobutylethyl]amino}-8-[(2R)-2-phenylpiperidin-1-yl]-7-[4-(trifluoromethyl)benzyl]-7H-purine-2-carboxylic acid] | 17.3 |
| C[C@@H](Nc1nc(C(=O)O)nc2nc(N3CCCC[C@H]3c3ccccc3)n(Cc3ccc(C(F)(F)F)cc3)c12)C1CCC1 [Example 9.63, 6-{[(1R)-1-cyclobutylethyl]amino}-8-[(2S)-2-phenylpiperidin-1-yl]-7-[4-(trifluoromethyl)benzyl]-7H-purine-2-carboxylic acid] | 3.06 |
| CC(C)CC1COCCN1c1nc2nc(C(=O)O)nc(N[C@H](C)C3CCC3)c2n1Cc1ccc(C(F)(F)F)cc1 (stereo partly drawn) [Example 9.66, 6-{[(1R)-1-cyclobutylethyl]amino}-8-[3-(2-methylpropyl)morpholin-4-yl]-7-[4-(trifluoromethyl)benzyl]-7H-purine-2-carboxylic acid] | 6.07 |
| C[C@@H](Nc1nc(-c2noc(=O)[nH]2)nc2nc(N3CCCCC3c3ccccc3)n(Cc3ccc(C(F)(F)F)cc3)c12)C1CCC1 (stereo partly drawn) [Example 9.67, 3-(6-{[(1R)-1-cyclobutylethyl]amino}-8-(2-phenylpiperidin-1-yl)-7-[4-(trifluoromethyl)benzyl]-7H-purin-2-yl)-1,2,4-oxadiazol-5(4H)-one] | 12.7 |
| C[C@@H](Nc1nc(C(=O)O)nc2nc(N3CCCCC3Cc3cccc(C(F)(F)F)c3)n(Cc3ccc(C(F)(F)F)cc3)c12)C1CCC1 (stereo partly drawn) [Example 9.68, 6-{[(1R)-1-cyclobutylethyl]amino}-7-[4-(trifluoromethyl)benzyl]-8-{2-[3-(trifluoromethyl)benzyl]piperidin-1-yl}-7H-purine-2-carboxylic acid] | 110 |
| C[C@@H](Nc1nc(C(=O)O)nc2nc(N3CCCCC3Cc3ccc(F)cc3)n(Cc3ccc(C(F)(F)F)cc3)c12)C1CCC1 (stereo partly drawn) [Example 9.69, 6-{[(1R)-1-cyclobutylethyl]amino}-8-[2-(4-fluorobenzyl)piperidin-1-yl]-7-[4-(trifluoromethyl)benzyl]-7H-purine-2-carboxylic acid] | 7.92 |
| COc1ccc(C2CCCCN2c2nc3nc(C(=O)O)nc(N[C@H](C)C4CCC4)c3n2Cc2ccc(C(F)(F)F)cc2)cc1 (stereo partly drawn) [Example 9.70, 6-{[(1R)-1-cyclobutylethyl]amino}-8-[2-(4-methoxyphenyl)piperidin-1-yl]-7-[4-(trifluoromethyl)benzyl]-7H-purine-2-carboxylic acid] | 9.29 |
| CCC(c1ccccc1)N(C)c1nc2nc(-c3noc(=O)[nH]3)nc(N[C@H](C)C3CCC3)c2n1Cc1ccc(C(F)(F)F)c(F)c1 (stereo partly drawn) [Example 9.71, 3-(6-{[(1R)-1-cyclobutylethyl]amino}-7-[3-fluoro-4-(trifluoromethyl)benzyl]-8-[methyl(1-phenylpropyl)amino]-7H-purin-2-yl)-1,2,4-oxadiazol-5(4H)-one] | 18.1 |
| CC(c1ccccn1)N(C)c1nc2nc(-c3noc(=O)[nH]3)nc(N[C@H](C)C3CCC3)c2n1Cc1ccc(C(F)(F)F)c(F)c1 (stereo partly drawn) [Example 9.72, 3-(6-{[(1R)-1-cyclobutylethyl]amino}-7-[3-fluoro-4-(trifluoromethyl)benzyl]-8-[methyl(1-pyridin-2-ylethyl)amino]-7H-purin-2-yl)-1,2,4-oxadiazol-5(4H)-one] | 4.64 |
| CC(c1cccc(F)c1)N(C)c1nc2nc(-c3noc(=O)[nH]3)nc(N[C@H](C)C3CCC3)c2n1Cc1ccc(C(F)(F)F)c(F)c1 (stereo partly drawn) [Example 9.73, 3-(6-{[(1R)-1-cyclobutylethyl]amino}-8-{[1-(3-fluorophenyl)ethyl](methyl)amino}-7-[3-fluoro-4-(trifluoromethyl)benzyl]-7H-purin-2-yl)-1,2,4-oxadiazol-5(4H)-one] | 16.2 |
| C[C@@H](Nc1nc(C(=O)O)nc2nc(N3CCCC34CCc3ccccc34)n(Cc3ccc(C(F)(F)F)cc3)c12)C1CCC1 (stereo partly drawn) [Example 9.74, 6-{[(1R)-1-cyclobutylethyl]amino}-8-(2,3-dihydro-1'H-spiro[indene-1,2'-pyrrolidin]-1'-yl)-7-[4-(trifluoromethyl)benzyl]-7H-purine-2-carboxylic acid] | 12.9 |
| CC(Nc1nc2nc(-c3noc(=O)[nH]3)nc(N[C@H](C)C3CCC3)c2n1Cc1ccc(C(F)(F)F)cc1)c1ccccn1 (stereo partly drawn) [Example 9.75, 3-(6-{[(1R)-1-cyclobutylethyl]amino}-8-[(1-pyridin-2-ylethyl)amino]-7-[4-(trifluoromethyl)benzyl]-7H-purin-2-yl)-1,2,4-oxadiazol-5(4H)-one] | 8.12 |
| CC(C)CN(C)c1nc2nc(-c3noc(=O)[nH]3)nc(N[C@H](C)C3CCC3)c2n1Cc1ccc(C(F)(F)F)cc1 [Example 9.81, 3-(6-{[(1R)-1-cyclobutylethyl]amino}-8-[methyl(2-methylpropyl)amino]-7-[4-(trifluoromethyl)benzyl]-7H-purin-2-yl)-1,2,4-oxadiazol-5(4H)-one] | 11.6 |
| C[C@@H](Nc1nc(-c2noc(=O)[nH]2)nc2nc(N(C)C3CCCC3)n(Cc3ccc(C(F)(F)F)cc3)c12)C1CCC1 [Example 9.82, 3-(6-{[(1R)-1-cyclobutylethyl]amino}-8-[cyclopentyl(methyl)amino]-7-[4-(trifluoromethyl)benzyl]-7H-purin-2-yl)-1,2,4-oxadiazol-5(4H)-one] | 13.7 |
| C[C@@H](Nc1nc(-c2noc(=O)[nH]2)nc2nc(N3CCCC3(C)C)n(Cc3ccc(C(F)(F)F)cc3)c12)C1CCC1 [Example 9.83, 3-(6-{[(1R)-1-cyclobutylethyl]amino}-8-(2,2-dimethylpyrrolidin-1-yl)-7-[4-(trifluoromethyl)benzyl]-7H-purin-2-yl)-1,2,4-oxadiazol-5(4H)-one] | 25.6 |
| C[C@@H](Nc1nc(-c2noc(=O)[nH]2)nc2nc(N(C)CC(C)(C)C)n(Cc3ccc(C(F)(F)F)cc3)c12)C1CCC1 [Example 9.84, 3-(6-{[(1R)-1-cyclobutylethyl]amino}-8-[(2,2-dimethylpropyl)(methyl)amino]-7-[4-(trifluoromethyl)benzyl]-7H-purin-2-yl)-1,2,4-oxadiazol-5(4H)-one] | 13.3 |
| C[C@@H](Nc1nc(-c2noc(=O)[nH]2)nc2nc(N3CCCCC34CC4)n(Cc3ccc(C(F)(F)F)cc3)c12)C1CCC1 [Example 9.85, 3-{8-(4-azaspiro[2.5]oct-4-yl)-6-{[(1R)-1-cyclobutylethyl]amino}-7-[4-(trifluoromethyl)benzyl]-7H-purin-2-yl}-1,2,4-oxadiazol-5(4H)-one] | 9.84 |
| CC(C)C1CCCN1c1nc2nc(-c3noc(=O)[nH]3)nc(N[C@H](C)C3CCC3)c2n1Cc1ccc(C(F)(F)F)cc1 (stereo partly drawn) [Example 9.86, 3-(6-{[(1R)-1-cyclobutylethyl]amino}-8-[2-(1-methylethyl)pyrrolidin-1-yl]-7-[4-(trifluoromethyl)benzyl]-7H-purin-2-yl)-1,2,4-oxadiazol-5(4H)-one] | 10.2 |
| C[C@@H](Nc1nc(-c2noc(=O)[nH]2)nc2nc(N(C)C3CCCCC3)n(Cc3ccc(C(F)(F)F)cc3)c12)C1CCC1 [Example 9.87, 3-(6-{[(1R)-1-cyclobutylethyl]amino}-8-[cyclohexyl(methyl)amino]-7-[4-(trifluoromethyl)benzyl]-7H-purin-2-yl)-1,2,4-oxadiazol-5(4H)-one] | 23.4 |
| C[C@@H](Nc1nc(-c2noc(=O)[nH]2)nc2nc(N3CCOCC3(C)C)n(Cc3ccc(C(F)(F)F)cc3)c12)C1CCC1 [Example 9.88, 3-(6-{[(1R)-1-cyclobutylethyl]amino}-8-(3,3-dimethylmorpholin-4-yl)-7-[4-(trifluoromethyl)benzyl]-7H-purin-2-yl)-1,2,4-oxadiazol-5(4H)-one] | 12.2 |
